We go through nine compounds from ChEMBL document CHEMBL1268991, “New stilbenoid with inhibitory activity on viral neuraminidases from Erythrina addisoniae” (Bioorg Med Chem Lett, 2010).

Assay [1] deals with T1, Neuraminidase (Influenza A virus, UniProt B4URF0). The experiment in a line: Inhibition of influenza A virus H9N2 Neuraminidase using 4-methylumbelliferyl-alpha-D-N-acetylneuraminic acid sodium salt hydrate substrate.
Assay [2] deals with T1, Neuraminidase. Nature of the assay: Non-competitive inhibition of influenza A virus H1N1 Neuraminidase using 4-methylumbelliferyl-alpha-D-N-acetylneuraminic acid sodium salt hydrate substrate by Lineweaver burk plot.
Assay [3] addresses T1, Neuraminidase. Nature of the assay: Inhibition of influenza A virus H1N1 Neuraminidase using 4-methylumbelliferyl-alpha-D-N-acetylneuraminic acid sodium salt hydrate substrate.

Regarding `CC(C)=CCc1cc(/C=C/C(=O)c2ccc(O)cc2O)cc(O)c1O` [5'-PRENYLBUTEIN], the IC50 at Neuraminidase [1] is 60.1 µM; at Neuraminidase [3] it was 64.4 µM. In addition, on Neuraminidase [2], the Ki was 66.7 µM.
Taken in the same sequence, the figures for `CC(C)=CCc1cc(/C=C/C(=O)c2ccc(O)cc2O)cc(CC=C(C)C)c1O` [ABYSSINONE VI] were 62.6 µM, 67.4 µM and 70 µM.
`CC(C)=CCc1cc(-c2coc3cc(O)cc(O)c3c2=O)ccc1O` [CORYLIN]: the IC50 at Neuraminidase [1] and at Neuraminidase [3] was above 148 µM in each case.
In the case of `C=C(C)C(O)CC1=c2occ(-c3ccc(O)cc3)c(=O)c2=C(O)C2C=CC(C)(C)OC12` (configuration not stated) [ERYSENEGALENSEIN], the IC50 on Neuraminidase [1] and on Neuraminidase [3] was above 118 µM in each case.
On to `CC1(C)C=Cc2c(c(CO)c3occ(-c4ccc(O)cc4)c(=O)c3c2O)O1` [ERYTHRADDISON A], for which the half-maximal inhibitory concentration (IC50) at Neuraminidase [1] and at Neuraminidase [3] was above 136 µM throughout.
As to `COc1ccc(/C(C=O)=C\c2ccc(O)cc2OC)c(O)c1` [ERYTHRADDISON B], the IC50 at Neuraminidase [1] is 23.9 µM; on Neuraminidase [3], 29.3 µM. Besides, on Neuraminidase [2], the Ki is 32.7 µM.
Turning to `CC1(C)C=Cc2cc(-c3coc4cc(O)ccc4c3=O)ccc2O1` [ISOWIGHTEONE], the IC50 on Neuraminidase [1] and on Neuraminidase [3] was above 156 µM throughout.
Take `CC(C)=CCc1cc(/C=C/C(=O)c2ccc(O)cc2O)ccc1O` [LICOAGROCHALCONE A]: the IC50 was 61.7 µM at Neuraminidase [1] and 66.3 µM at Neuraminidase [3]. Besides, the Ki on Neuraminidase [2] is 68.9 µM.
Consider `CC(C)=CCc1c(O)cc2occ(-c3ccc(O)cc3)c(=O)c2c1O` [WIGHTEONE], for which the 50% inhibitory concentration (IC50) on Neuraminidase [1] and on Neuraminidase [3] was above 148 µM each time.

Broadly, the IC50 is the concentration that gives 50% inhibition. As a reminder, the Ki is the equilibrium dissociation constant of an inhibitor or competing ligand from its target.
